Data from patent US7419966B2, “[5-carboxamido or 5-fluoro]-[2′,3′-unsaturated or 3′-modified]-pyrimidine nucleosides” (Emory University, priority 1995, dated 2008).
Read-outs that look alike come from different tables or passages of the source.

Assays:
Type in all cases: cell-based
[1] = tested on: HIV-1 (strain LAV); experiment: Anti-HIV-1 activity in PHA-stimulated human PBM cells (reverse transcriptase readout)
Description: The ability of nucleosides to inhibit HIV can be measured by various experimental techniques. The technique used herein, and described in detail below, measures the inhibition of viral replication in phytohemagglutinin (PHA) stimulated human peripheral blood mononuclear (PBM) cells infected with HIV-1. (strain LAV). The amount of virus produced is determined by measuring the virus-coded reverse transcriptase enzyme. The amount of enzyme produced is proportional to the amount of virus produced.
Three-day-old phytohemagglutinin-stimulated PBM cells (10^6 cells/ml) from hepatitis B and HIV-1 seronegative healthy donors were infected with HIV-1 (strain LAV) at a concentration of about 100 times the 50% tissue culture infectious dose (TICD 50) per ml and cultured in the presence and absence of various concentrations of antiviral compounds.
Approximately one hour after infection, the medium, with the compound to be tested (2 times the final concentration in medium) or without compound, was added to the flasks (5 ml; final volume 10 ml). AZT was used as a positive control.
The cells were exposed to the virus (about 2×10^5 dpm/ml, as determined by reverse transcriptase assay) and then placed in a CO2 incubator. HIV-1 (strain LAV) was obtained from the Center for Disease Control, Atlanta, Ga. The methods used for culturing the PBM cells, harvesting the virus and determining the reverse transcriptase activity were those described by McDougal et al. (J. Immun. Meth. 76, 171-183, 1985) and Spira et al. (J. Clin. Meth. 25, 97-99, 1987), except that fungizone was not included in the medium (see Schinazi, et al., Antimicrob. Agents Chemother. 32, 1784-1787 (1988); Id., 34:1061-1067 (1990)).
On day 6, the cells and supernatant were transferred to a 15 ml tube and centrifuged at about 900 g for 10 minutes. Five ml of supernatant were removed and the virus was concentrated by centrifugation at 40,000 rpm for 30 minutes (Beckman 70.1 Ti rotor). The solubilized virus pellet was processed for determination of the levels of reverse transcriptase. Results are expressed in dpm/ml of sampled supernatant. Virus from smaller volumes of supernatant (1 ml) can also be concentrated by centrifugation prior to solubilization and determination of reverse transcriptase levels.

[2] = tested on: hepatitis B virus in transfected HepG-2 (2.2.15) cells; experiment: Anti-HBV activity in 2.2.15 cell cultures (HBV virion DNA and replicative intermediates); settings: for EC50 / EC90: Table 2, day 9; for activity against HBV, in words: text b71, b81
Description: The ability of the active compounds to inhibit the growth of virus in 2.2.15 cell cultures (HepG2 cells transformed with hepatitis virion) can be evaluated as described in detail below.
A summary and description of the assay for antiviral effects in this culture system and the analysis of HBV DNA has been described (Korba and Milman, 1991, Antiviral Res., 15:217). The antiviral evaluations were performed on two separate passages of cells. All wells, in all plates, were seeded at the same density and at the same time.
Due to the inherent variations in the levels of both intracellular and extracellular HBV DNA, only depressions greater than 3.5-fold (for HBV virion DNA) or 3.0-fold (for HBV DNA replication intermediates) from the average levels for these HBV DNA forms in untreated cells are considered to be statistically significant [P<0.05]. The levels of integrated HBV DNA in each cellular DNA preparation (which remain constant on a per cell basis in these experiments) were used to calculate the levels of intracellular HBV DNA forms, thereby ensuring that equal amounts of cellular DNA were compared between separate samples.
Typical values for extracellular HBV virion DNA in untreated cells ranged from 50 to 150 pg/ml culture medium (average of approximately 76 pg/ml). Intracellular HBV DNA replication intermediates in untreated cells ranged from 50 to 100 pg/μg cell DNA (average approximately 74 pg/μg cell DNA). In general, depressions in the levels of intracellular HBV DNA due to treatment with antiviral compounds are less pronounced, and occur more slowly, than depressions in the levels of HBV virion DNA (Korba and Milman, 1991, Antiviral Res., 15:217).

[3] = tested on: 2.2.15 cells (HepG2 cells transformed with hepatitis virion); experiment: Toxicity in 2.2.15 cells by neutral red dye uptake; settings: for toxicity, in words: HBV assay; for IC50: Table 2, 2.2.15 cells, read-out: Cytotoxicity IC50 ± SD
Description: Toxicity analyses were performed to assess whether any observed antiviral effects were due to a general effect on cell viability. The method used herein was the measurement of the uptake of neutral red dye, a standard and widely used assay for cell viability in a variety of virus-host systems, including HSV and HIV. Toxicity analyses were performed in 96-well flat bottomed tissue culture plates. Cells for the toxicity analyses were cultured and treated with test compounds with the same schedule as described for the antiviral evaluations below. Each compound was tested at 4 concentrations, each in triplicate cultures (wells “A”, “B”, and “C”). Uptake of neutral red dye was used to determine the relative level of toxicity. The absorbance of internalized dye at 510 nm (Asin) was used for the quantitative analysis. Values are presented as a percentage of the average Asin values in 9 separate cultures of untreated cells maintained on the same 96-well plate as the test compounds. Dye uptake in the 9 control cultures on plate 5 ranged from 91.6% to 110.4%, and on plate 6 from 96.6% to 109%.

[4] = tested on: uninfected human PBM cells; experiment: Toxicity in mitogen-stimulated uninfected human PBM cells (cell count, trypan blue exclusion)
Description: Mitogen stimulated uninfected human PBM cells (3.8×10^5 cells/ml) were cultured in the presence and absence of drug under similar conditions as those used for the antiviral assay described above. The cells were counted after 6 days using a hemacytometer and the trypan blue exclusion method, as described by Schinazi et al., Antimicrobial Agents and Chemotherapy, 22(3), 499 (1982). […]

[5] = tested on: CEM cells; experiment: Toxicity in CEM cells
[6] = tested on: Vero cells; experiment: Toxicity in Vero cells
[7] = tested on: HSV-1F; experiment: Anti-HSV-1 activity in Vero cells; settings: Table 1
[8] = tested on: various cell lines; experiment: Toxicity in various cell lines (PBM, CEM, Vero); settings: various cell lines
[9] = tested on: HIV-2ROD2; experiment: Anti-HIV-2 activity in PBMC
[10] = tested on: SIVSMM; experiment: Anti-SIV activity in PBMC
[11] = Table 1, HIV-1LAI, human PBM cells, estimated 10% error factor, read-out: Anti-HIV-1 in PBMC EC50
[12] = extracellular DNA, untreated control 102 pg/ml, read-out: HBV virion EC50 ± SD
[13] = extracellular DNA, untreated control 102 pg/ml, read-out: HBV virion EC90 ± SD
[14] = replicative intermediates (intracellular DNA), untreated control 87 pg/μg cell DNA, read-out: HBV RI EC50 ± SD
[15] = replicative intermediates (intracellular DNA), untreated control 87 pg/μg cell DNA, read-out: HBV RI EC90 ± SD
[16] = Table 1, uninfected human PBM cells, 6 days

Compound | EC50 [1, 11] [µM] | IC50 [4, 16] [µM] | IC50 ([5]; Table 1) [µM] | IC50 ([6]; Table 1) [µM] | also measured
5-carboxylic acid amide-2′,3′-dideoxy-3′-thiacytidine [C Carboxamide (+)-β-D] | 8.5 |  |  |  | EC50 [2, 12]: 0.11 ± 0.012 µM; EC90 [2, 13]: 0.9 ± 0.1 µM; EC50 [2, 14]: 0.5 ± 0.04 µM; EC90 [2, 15]: 3.8 ± 0.3 µM; activity against HBV, in words [2]: significant activity against HBV; toxicity, in words [3]: relatively nontoxic; IC50 [3]: 1120 ± 72 µM
5-carboxylic acid amide-2′,3′-dideoxy-3′-thiacytidine [C Carboxamide (±)-β-DL] |  | > 100 | > 100 | > 100 | EC50 ([1]; HIV-1 in PBM cells, read-out: median effective concentration (antiviral activity)): 0.77 µM; EC50 [7]: > 100 µM; toxicity (no toxicity up to) [8]: > 100 µM
Nc1cn([C@@H]2CS[C@H](CO)O2)c(=O)nc1N (racemic) [C Amino (±)-β-DL] | 26.4 | > 100 | > 100 | > 100 | 
N#Cc1cn([C@@H]2CS[C@H](CO)O2)c(=O)nc1N (racemic) [C Cyano (±)-β-DL] | > 100 | > 100 | > 100 | > 100 | 
CCc1cn([C@@H]2CS[C@H](CO)O2)c(=O)nc1N (racemic) [C Ethyl (±)-β-DL] | 102 | > 100 | > 100 | > 100 | 
C#Cc1cn([C@@H]2CS[C@H](CO)O2)c(=O)nc1N (racemic) [C Ethynyl (±)-β-DL] | > 100 | > 100 | > 100 | > 100 | 
COC(=O)c1cn(C2CSC(CO)O2)c(=O)nc1N (racemic) [C Methoxycarbonyl (±)-β-DL, 5-carboxylic acid methyl ester-2′,3′-dideoxy-3′-thiacytidine] | 38.9 | > 100 | > 100 | > 100 | 
CN(C)C(=O)c1cn([C@@H]2CS[C@H](CO)O2)c(=O)nc1N (racemic) [C N,N-Dimethylaminoformyl (±)-β-DL] | > 100 | > 100 | > 100 | > 100 | 
CNC(=O)c1cn([C@@H]2CS[C@H](CO)O2)c(=O)nc1N (racemic) [C N-Methylaminoformyl (±)-β-DL] | > 100 | > 100 | > 100 | > 100 | 
Nc1nc(=O)n([C@@H]2CS[C@H](CO)O2)cc1[N+](=O)[O-] (racemic) [C Nitro (±)-β-DL] | 100 | > 100 | > 100 | > 100 | 
Nc1cn([C@@H]2CS[C@H](CO)O2)c(=O)[nH]c1=O (racemic) [U Amino (±)-β-DL] | 119 | > 100 | > 100 | > 100 | 
NC(=O)c1cn([C@@H]2CS[C@H](CO)O2)c(=O)[nH]c1=O (racemic) [U Carboxamide (±)-β-DL, 5-carboxamide-2′,3′-dideoxy-3′-thiauridine] | > 100 | > 100 | > 100 | > 100 | 
N#Cc1cn([C@@H]2CS[C@H](CO)O2)c(=O)[nH]c1=O (racemic) [U Cyano (±)-β-DL] | > 100 | > 100 | > 100 |  | 
CCc1cn([C@@H]2CS[C@H](CO)O2)c(=O)[nH]c1=O (racemic) [U Ethyl (±)-β-DL] | > 100 | > 100 | > 100 | > 100 | 
C#Cc1cn([C@@H]2CS[C@H](CO)O2)c(=O)[nH]c1=O (racemic) [U Ethynyl (±)-β-DL] | 23.8 | > 100 | > 100 | > 100 | 
COC(=O)c1cn([C@@H]2CS[C@H](CO)O2)c(=O)[nH]c1=O (racemic) [U Methoxycarbonyl (±)-β-DL] | > 100 | > 100 | > 100 | > 100 | EC50 [7]: > 100 µM
O=c1[nH]c(=O)n([C@@H]2CS[C@H](CO)O2)cc1[N+](=O)[O-] (racemic) [U Nitro (±)-β-DL] | 122 | > 100 | > 100 | > 100 | 
Nc1ccn([C@@H]2CS[C@H](CO)O2)c(=O)n1 (single isomer, unassigned) [3TC, (−)-enantiomer of 2-hydroxymethyl-5-(cytosin-1-yl)-1,3-oxathiolane, reference compound] | 0.002 | > 100 | > 100 | > 100 | EC50 ([1]; Table 3, HIV-1LAI, estimated 10% error factor, read-out: Anti-HIV-1 in PBMC EC50): 0.002 µM; IC50 ([4]; Table 3): > 100 µM; IC50 ([5]; Table 3): > 100 µM; IC50 ([6]; Table 3): > 100 µM; EC50 [7]: > 100 µM; EC50 ([9]; Table 3, HIV-2ROD2, read-out: Anti-HIV-2 in PBMC EC50): 0.02 µM; EC50 ([10]; Table 3, SIVSMM, read-out: Anti-SIV in PBMC EC50): 0.02 µM
Nc1nc2c(ncn2COCCO)c(=O)[nH]1 [Acyclovir, reference compound] |  |  |  |  | EC50 ([7]; Human alphaherpesvirus 1, Vero): 0.04 µM
NC(=O)c1cn([C@@H]2CS[C@H](CO)O2)c(=O)nc1N [C Carboxamide (−)-β-L, 5-carboxylic acid amide-2′,3′-dideoxy-3′-thiacytidine] | 3.6 | > 100 | > 100 | > 100 | EC50 ([9]; Table 1 footnote b, read-out: EC50 against HIV-2ROD2): 1.6 µM; EC50 ([10]; Table 1 footnote b, read-out: EC50 against SIVSMM): 4 µM; EC50 [2, 12]: 0.29 ± 0.02 µM; EC90 [2, 13]: 1.5 ± 0.2 µM; EC50 [2, 14]: 1.3 ± 0.1 µM; EC90 [2, 15]: 9.9 ± 0.8 µM; activity against HBV, in words [2]: significant activity against HBV; toxicity, in words [3]: relatively nontoxic; IC50 [3]: 1750 ± 212 µM
